For orientation: pEC50 means the negative decadic logarithm of the EC50, by convention in mol/L.

One test has as its target T1, ΔF508 CFTR (Homo sapiens, UniProt P13569, DEL508-508).
T1 construct: expressed in transfected cells
The test can be described thus: MQAE chloride transport assay in C127 cells expressing ΔF508 CFTR. The conditions noted are these: for Emax: C127, plateau level in activity at high compound concentration, read-out: % of Maximal Response; for Emax / % of Maximal Response: as a percentage of the low temperature response; for pEC50: chloride transport activity, C127 ΔF508 CFTR cells, MQAE; for % of Maximal Response: plateau level in activity at high compound concentration. In kind it is cell-based, murine. On the procedure: C127 cells are a murine mammary epithelial cell line obtained from ATCC (#CRL 1616, American Type Culture Collection, Manassas, Va.). C127 cells were transfected with a bovine papilloma virus-based eukaryotic expression vector containing genes for ΔF508 CFTR and neomycin resistance whose expression was driven by a metallothionein promoter. Clonal cell populations resistant to G418 and positive for staining with anti-CFTR antibody were identified.
C127 cells expressing ΔF508 CFTR were grown in microtiter plates in DMEM (Dulbecco's Modified Eagle Medium, Hyclone, Logan, Utah) supplemented with fetal bovine serum, antibiotics, and glutamine in a 37° C., 5% CO2 atmosphere. Once confluent, the cells were loaded overnight with the disclosed compounds and a fluorescent dye sensitive to chloride ion concentration, N-(ethoxycarbonylmethyl)-6-methoxy quinolinium bromide (MQAE) (Verkman, Am. J. Physiol. 259 C375-C388 (1990)).
The following day, cells were washed with chloride-containing buffer to remove extracellular MQAE and to quench intracellular MQAE fluorescence. Chloride buffer was flicked out and replaced with nitrate buffer with added forskolin and IBMX (isobutylmethylxanthine) to stimulate CFTR activity. […] Buffers were adjusted to pH 7.4 and contained: 10 mM HEPES (N-2-Hydroxyethylpiperazine-N′-2-ethanesulfonic acid), 2.4 mM K2HPO4, 0.6 mM KH2PO4, 1.0 mM CaSO4, 1.0 mM MgSO4, 150 mM NaCl or NaNO3, and 25 mM glucose.
The increase in MQAE fluorescence as a function of time was followed using 360 nm excitation and 460 nm emission wavelengths. Fluorescence increased as chloride flowed out of cells through CFTR and the rate of increase in fluorescence over the first five minutes was taken as a measure of chloride transport activity.
Cells were treated with mixtures of up to 100 compounds per well for ca. 18 hours before the assay for chloride transport activity. […] Dose-response curves were generated and compounds were ranked based on their EC50 values and maximal responses (the plateau level in activity at high compound concentration, as a percentage of the low temperature response).

Test [1] concerns wild-type C57black6/J mice. As to conditions: female wild-type mice; 4 g/kg/day dose for 2 days; previously measured; cited from earlier work.

pEC50: −log10 of the molar value.

T1 sequence (P13569 with tags, fused parts or gaps DEL508-508): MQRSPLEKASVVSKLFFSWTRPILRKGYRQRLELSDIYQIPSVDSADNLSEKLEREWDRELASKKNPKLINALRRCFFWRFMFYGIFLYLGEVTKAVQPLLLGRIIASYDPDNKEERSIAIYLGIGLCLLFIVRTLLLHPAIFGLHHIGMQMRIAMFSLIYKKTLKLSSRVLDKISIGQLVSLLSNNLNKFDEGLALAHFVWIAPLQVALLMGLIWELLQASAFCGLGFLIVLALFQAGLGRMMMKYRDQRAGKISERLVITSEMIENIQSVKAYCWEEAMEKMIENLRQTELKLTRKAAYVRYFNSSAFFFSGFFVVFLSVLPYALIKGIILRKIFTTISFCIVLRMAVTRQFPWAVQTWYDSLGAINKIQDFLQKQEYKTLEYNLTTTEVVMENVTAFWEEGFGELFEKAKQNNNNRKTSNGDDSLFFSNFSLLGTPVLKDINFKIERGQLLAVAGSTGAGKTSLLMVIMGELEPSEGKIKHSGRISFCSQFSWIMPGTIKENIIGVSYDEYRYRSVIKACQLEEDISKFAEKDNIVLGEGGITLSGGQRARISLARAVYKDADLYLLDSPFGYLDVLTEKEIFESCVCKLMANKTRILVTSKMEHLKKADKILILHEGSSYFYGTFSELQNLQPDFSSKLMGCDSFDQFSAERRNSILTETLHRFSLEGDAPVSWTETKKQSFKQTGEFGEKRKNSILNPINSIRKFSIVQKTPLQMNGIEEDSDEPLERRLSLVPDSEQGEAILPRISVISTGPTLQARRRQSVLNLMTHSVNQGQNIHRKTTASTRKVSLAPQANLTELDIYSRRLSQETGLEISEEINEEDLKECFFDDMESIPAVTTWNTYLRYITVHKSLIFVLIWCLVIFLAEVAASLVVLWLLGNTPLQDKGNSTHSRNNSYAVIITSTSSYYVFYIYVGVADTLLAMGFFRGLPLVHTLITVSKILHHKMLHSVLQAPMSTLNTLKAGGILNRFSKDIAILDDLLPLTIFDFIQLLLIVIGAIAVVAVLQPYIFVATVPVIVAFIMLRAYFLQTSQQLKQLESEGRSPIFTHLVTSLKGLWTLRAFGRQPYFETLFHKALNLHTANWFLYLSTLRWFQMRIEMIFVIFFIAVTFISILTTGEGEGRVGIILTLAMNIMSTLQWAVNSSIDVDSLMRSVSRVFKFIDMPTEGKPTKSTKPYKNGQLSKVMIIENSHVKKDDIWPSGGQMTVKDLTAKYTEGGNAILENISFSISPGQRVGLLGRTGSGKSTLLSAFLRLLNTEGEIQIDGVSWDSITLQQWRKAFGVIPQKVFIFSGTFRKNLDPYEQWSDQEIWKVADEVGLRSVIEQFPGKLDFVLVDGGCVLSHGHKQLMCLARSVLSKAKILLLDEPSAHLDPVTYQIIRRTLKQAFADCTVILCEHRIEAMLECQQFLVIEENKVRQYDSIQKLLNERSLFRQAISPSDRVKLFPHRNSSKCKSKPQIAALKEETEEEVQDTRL

On to `CCCCCc1ccc(NC(=O)[C@@H]2Cc3ccccc3CN2C(=O)c2cccc(Oc3ccc(OC)cc3)c2)cc1` [Compound 112], for which, at ΔF508 CFTR, the Emax is 71% and the pEC50 is 7.41.
For `CCCCCc1ccc(NC(=O)[C@@H]2Cc3ccccc3CN2C(=O)c2cccc(OCc3ccccc3)c2)cc1` [Compound 114] the same measures were 72% and 7.23.
`CCCCCc1ccc(NC(=O)[C@@H]2Cc3ccccc3CN2C(=O)c2ccc(OC)c(Oc3ccccc3)c2)cc1` [Compound 115]: on ΔF508 CFTR, the Emax is 74%.
Consider `CCCCCc1ccc(NC(=O)[C@@H]2Cc3ccccc3CN2C(=O)c2ccc(OC)c(OCc3ccccc3)c2)cc1` [Compound 116], for which, on ΔF508 CFTR, the Emax was 88% and the pEC50 is 7.74.
With `CCCCCc1ccc(NC(=O)[C@@H]2Cc3ccccc3CN2C(=O)c2cc(Oc3ccccc3)ccn2)cc1` [Compound 118], at ΔF508 CFTR, the Emax turned out to be 79%.
Regarding `CCCCCc1ccc(NC(=O)[C@@H]2Cc3ccccc3CN2C(=O)c2cccc(Oc3ccc(OCC)c(Oc4ccccc4)c3)c2)cc1` [Compound 121, (S)-2-[3-(4-Ethoxy-3-phenoxyphenoxy)benzoyl]-1,2,3,4-tetrahydroisoquinoline-3-carboxylic acid (4-pentylphenyl)amide], on ΔF508 CFTR, the pEC50 was 8.20 and the “% of Maximal Response” value was determined as 80%.
On to `CCCCCc1ccc(NC(=O)[C@@H]2Cc3ccccc3CN2C(=O)c2cccc(OC(C)(C)C)c2)cc1` [Compound 122], for which, on ΔF508 CFTR, the Emax was determined as 83% and the pEC50 was 8.00.
For `CCCCCc1ccc(NC(=O)[C@@H]2Cc3ccccc3CN2C(=O)c2cccc(CN3CCOCC3)c2)cc1` [Compound 123] the same measures were 63% and 7.02.
On to `CCCCCc1ccc(NC(=O)[C@@H]2Cc3ccccc3CN2C(=O)c2ccc(OC)c(OC)c2)cc1` [Compound 127], for which, on ΔF508 CFTR, the Emax came to 83% and the pEC50 was 6.74.
In the case of `CCCCCc1ccc(NC(=O)[C@@H]2Cc3ccccc3CN2C(=O)c2ccc(OC)c(OCCN3CCOCC3)c2)cc1` [Compound 128, (S)-2-[4-Methoxy-3-(2-morpholin-4-yl-ethoxy)benzoyl]-1,2,3,4-tetrahydroisoquinoline-3-carboxylic acid (4-pentylphenyl)amide], on ΔF508 CFTR, the Emax came out at 63% and the pEC50 was 6.96.
For `CCCCCc1ccc(NC(=O)[C@@H]2Cc3ccccc3CN2C(=O)c2cc(Cl)cc(Cl)c2)cc1` [Compound 133] the same measures were 70% and 7.85.
In the case of `CCCCCc1ccc(NC(=O)[C@@H]2Cc3ccccc3CN2C(=O)c2ccc3c(c2)OCCO3)cc1` [Compound 135], at ΔF508 CFTR, the Emax came out at 56% and the pEC50 is 6.54.
For the molecule `CCCCCc1ccc(NC(=O)[C@@H]2Cc3ccccc3CN2C(=O)c2cc(OCCN3CCOCC3)cc(OC(C)C)c2)cc1` [Compound 137], at ΔF508 CFTR, the Emax is 69% and the negative-log EC50 (pEC50) was 6.74.
With `CCCCCc1ccc(NC(=O)[C@@H]2Cc3ccccc3CN2C(=O)c2cc(OC)c(OC)c(OC)c2)cc1` [Compound 138], on ΔF508 CFTR, the Emax was found to be 67% and the pEC50 is 7.03.
The like results for `CCCCCc1ccc(NC(=O)C2Cc3ccccc3CN2C(=O)c2cccc(OC(C)CC)c2)cc1` (stereo not drawn) [Compound 140] were, in that order, 84% and 8.36.
The like results for `CCCCCc1ccc(NC(=O)[C@@H]2Cc3ccccc3CN2C(=O)c2cccc(OC(CC)CC)c2)cc1` [Compound 141] were, in that order, 84% and 7.92.
Regarding `CCCCCc1ccc(NC(=O)[C@@H]2Cc3ccccc3CN2C(=O)c2cccc(OC(C)C(C)C)c2)cc1` (stereo partly drawn) [Compound 142], on ΔF508 CFTR, the Emax was found to be 88% and the pEC50 was 8.10.
For `CCCCCc1ccc(NC(=O)[C@@H]2Cc3ccccc3CN2C(=O)c2ccc(C)c(OC(C)C)c2)cc1` [Compound 143] the same measures were 85% and 8.23.
In the case of `CCCCCc1ccc(NC(=O)[C@@H]2Cc3ccccc3CN2C(=O)c2cc(OC(C)C)c(OC)cn2)cc1` [Compound 145, (S)-2-(4-Isopropoxy-5-methoxypyridine-2-carbonyl)-1,2,3,4-tetrahydroisoquinoline-3-carboxylic acid(4-pentylphenyl)amide], on ΔF508 CFTR, the pEC50 was 7.60 and the “% of Maximal Response” value came out at 75%.
In the case of `CCCCCc1ccc(NC(=O)[C@@H]2Cc3ccccc3CN2C(=O)c2cc(Oc3cccnc3)ccn2)cc1` [Compound 147], at ΔF508 CFTR, the Emax is 32% and the negative-log EC50 (pEC50) was 7.39.
For the molecule `C[N+](C)(C)[O-]` [trimethylamine oxide, trimethylamine-N-oxide], the “increase of forskolin response in RPD” value in test [1] is reported as 7.5 mV.

The values above are taken from US7541466B2, “Tetrahydroisoquinoline derivatives for treating protein trafficking diseases” (Genzyme Corporation, priority 2003, dated 2009).
